# Columns and labels:
# BRAF V600E = biological target: T1, BRAF V600E (Homo sapiens, UniProt P15056, V600E); assay: Cellular assay of target protein degradation, T-Rex 293 cells stably transfected with HA-BRAF_V600E (HA immunofluorescence, high content imaging); type: cell-based; conditions: T-Rex 293 HA-BRAF V600E; for DC50: half maximal degradation, read-out: BRaf V600E DC50; for Dmax: maximum degradation observed
# T1 construct: expressed in transfected cells
# In short: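 HA immunofluorescence on fixed cells, imaged by high-content reader, measured loss of HA-BRAF V600E in stably transfected T-Rex 293 cells induced with 1 ng/mL doxycycline. Compounds were applied for 24 h at 37 °C (final 0.1 nM–1 μM, 0.1% DMSO); DC50 and Dmax (% of control) were reported.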
# BRAF G466V = biological target: T2, BRAF G466V (Homo sapiens, UniProt P15056, G466V); assay: Cellular assay of target protein degradation, T-Rex 293 cells stably transfected with HA-BRAF G466V (HA immunofluorescence, high content imaging); type: cell-based; conditions: T-Rex 293 HA-BRAF G466V; for DC50: half maximal degradation, read-out: BRaf G466V DC50; for Dmax: maximum degradation observed
# T2 construct: expressed in transfected cells
# T2 sequence (P15056 whole entry G466V): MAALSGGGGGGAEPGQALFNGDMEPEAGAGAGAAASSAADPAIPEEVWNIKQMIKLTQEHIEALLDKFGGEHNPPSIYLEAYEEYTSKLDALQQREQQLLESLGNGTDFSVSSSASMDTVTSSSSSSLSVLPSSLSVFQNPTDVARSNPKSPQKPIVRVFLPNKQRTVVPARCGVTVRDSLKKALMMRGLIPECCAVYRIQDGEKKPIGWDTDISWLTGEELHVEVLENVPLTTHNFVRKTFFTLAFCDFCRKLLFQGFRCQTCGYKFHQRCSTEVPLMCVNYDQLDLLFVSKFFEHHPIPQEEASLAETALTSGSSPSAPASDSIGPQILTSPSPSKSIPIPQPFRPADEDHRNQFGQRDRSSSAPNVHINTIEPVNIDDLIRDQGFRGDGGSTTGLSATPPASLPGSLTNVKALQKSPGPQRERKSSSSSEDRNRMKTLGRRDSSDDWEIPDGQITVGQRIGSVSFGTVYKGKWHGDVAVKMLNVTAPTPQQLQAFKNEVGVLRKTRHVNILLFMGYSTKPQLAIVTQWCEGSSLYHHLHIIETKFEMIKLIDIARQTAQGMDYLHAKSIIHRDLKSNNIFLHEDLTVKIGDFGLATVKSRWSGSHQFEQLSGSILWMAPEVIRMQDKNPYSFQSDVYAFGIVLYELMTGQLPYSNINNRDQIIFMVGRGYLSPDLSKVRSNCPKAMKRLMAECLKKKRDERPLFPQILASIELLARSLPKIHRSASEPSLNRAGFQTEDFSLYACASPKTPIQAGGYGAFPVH
# In short: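 HA-BRAF G466V levels were read by HA immunofluorescence and high-content imaging after 24 h compound exposure (final 30 nM–3 pM, 0.1% DMSO, 37 °C). Expression was induced with 0.75 ng/mL doxycycline. Outputs: half-maximal degradation concentration (DC50) and maximal degradation (Dmax) relative to control.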
# T1 sequence (P15056 whole entry V600E): as the sequence (P15056 whole entry G466V) above, with V466G, V600E counted along it
SMILES,DC50 (BRAF V600E),Dmax (BRAF V600E),DC50 (BRAF G466V),Dmax (BRAF G466V)
"O=C1CC[C@@H](N2Cc3cc(CC[C@@H](O)CN4CC5(C4)CN(c4ccc(-c6cnc7[nH]cc(C(=O)c8c(F)ccc(NS(=O)(=O)N9CC[C@@H](F)C9)c8F)c7c6)cc4)C5)ccc3C2=O)C(=O)N1 [Compound 328, (3R)-N-{3-[5-(4-{6-[(2R)-4-{2-[(3R)-2,6-dioxopiperidin-3-yl]-1-oxo-2,3-dihydro-1H-isoindol-5-yl}-2-hydroxybutyl]-2,6-diazaspiro[3.3]heptan-2-yl}phenyl)-1H-pyrrolo[2,3-b]pyridine-3-carbonyl]-2,4-difluorophenyl}-3-fluoropyrrolidine-1-sulfonamide]",5 to 50 nM,35 to 70%,1 to 10 nM,> 70%
"O=C1CCC(N2Cc3cc(N4CCC(CN5CC[C@H]6[C@@H](C5)CN6c5ccc(-c6cnc7[nH]cc(C(=O)c8c(F)ccc(NS(=O)(=O)N9CC[C@@H](F)C9)c8F)c7c6)cc5)CC4)ccc3C2=O)C(=O)N1 (stereo partly drawn) [Compound 329, (3R)-N-[3-(5-{4-[(1S,6S)-3-({1-[2-(2,6-dioxopiperidin-3-yl)-1-oxo-2,3-dihydro-1H-isoindol-5-yl]piperidin-4-yl}methyl)-3,7-diazabicyclo[4.2.0]octan-7-yl]phenyl}-1H-pyrrolo[2,3-b]pyridine-3-carbonyl)-2,4-difluorophenyl]-3-fluoropyrrolidine-1-sulfonamide]",5 to 50 nM,35 to 70%,1 to 10 nM,> 70%
"O=C1CCC(N2Cc3cc(N4CCC(CN5CC6(CCN(c7ccc(-c8cnc9[nH]cc(C(=O)c%10c(F)ccc(NS(=O)(=O)N%11CC[C@@H](F)C%11)c%10F)c9c8)cn7)C6)C5)CC4)ccc3C2=O)C(=O)N1 (stereo partly drawn) [Compound 92, (3R)-N-[3-(5-{6-[2-({1-[2-(2,6-dioxopiperidin-3-yl)-1-oxo-2,3-dihydro-1H-isoindol-5-yl]piperidin-4-yl}methyl)-2,6-diazaspiro[3.4]octan-6-yl]pyridin-3-yl}-1H-pyrrolo[2,3-b]pyridine-3-carbonyl)-2,4-difluorophenyl]-3-fluoropyrrolidine-1-sulfonamide]",< 5 nM,35 to 70%,1 to 10 nM,> 70%
"COc1cc(N2CC3(CN(CC4CCN(c5ccc(-c6cnc7[nH]cc(C(=O)c8c(F)ccc(NS(=O)(=O)N9CC[C@@H](F)C9)c8F)c7c6)cc5)CC4)C3)C2)ccc1C(=O)N[C@@H]1CCC(=O)NC1=O [Compound 344, 4-(6-{[1-(4-{3-[2,6-difluoro-3-({[(3R)-3-fluoropyrroldiin-1-yl]sulfonyl}amino)benzoyl]-1H-pyrrolo[2,3-b]pyridin-5-yl}phenyl)piperidin-4-yl]methyl}-2,6-diazaspiro[3.3]heptan-2-yl)-N-[(3R)-2,6-dioxopiperidin-3-yl]-2-methoxybenzamide]",50 to 500 nM,< 35%,10 to 30 nM,> 70%
"O=C1CCC(N2Cc3cc(N4CC5(CN(CCOc6ccc(-c7cnc8[nH]cc(C(=O)c9c(F)ccc(NS(=O)(=O)N%10CC[C@@H](F)C%10)c9F)c8c7)cn6)C5)C4)ccc3C2=O)C(=O)N1 (stereo partly drawn) [Compound 158, (3R)-N-(3-{5-[6-(2-{6-[2-(2,6-dioxopiperidin-3-yl)-1-oxo-2,3-dihydro-1H-isoindol-5-yl]-2,6-diazaspiro[3.3]heptan-2-yl}ethoxy)pyridin-3-yl]-1H-pyrrolo[2,3-b]pyridine-3-carbonyl}-2,4-difluorophenyl)-3-fluoropyrrolidine-1-sulfonamide]",5 to 50 nM,35 to 70%,1 to 10 nM,> 70%
"Nc1ccc(F)c(C(=O)c2c[nH]c3ncc(-c4ccc(N5CCC(CN6CCC(c7ccc8c(c7)CN([C@H]7CCC(=O)NC7=O)C8=O)CC6)CC5)cc4)cc23)c1F [Compound 254, (3S)-3-(5-{1-[(1-{4-[3-(3-amino-2,6-difluorobenzoyl)-1H-pyrrolo[2,3-b]pyridin-5-yl]phenyl}piperidin-4-yl)methyl]piperidin-4-yl}-1-oxo-2,3-dihydro-1H-isoindol-2-yl) piperidine-2,6-dione]",> 500 nM,,< 1 nM,< 35%
"O=C1CCC(N2Cc3cc(N4CCC(CN5CCN(c6ccc(-c7cnc8[nH]cc(C(=O)c9c(F)ccc(NS(=O)(=O)N%10CC[C@@H](F)C%10)c9F)c8c7)cn6)CC5)CC4)ccc3C2=O)C(=O)N1 (stereo partly drawn) [Compound 25, (3R)-N-[3-(5-{6-[4-({1-[2-(2,6-dioxopiperidin-3-yl)-1-oxo-2,3-dihydro-1H-isoindol-5-yl]piperidin-4-yl}methyl)piperazin-1-yl]pyridin-3-yl}-1H-pyrrolo[2,3-b]pyridine-3-carbonyl)-2,4-difluorophenyl]-3-fluoropyrrolidine-1-sulfonamide]",5 to 50 nM,35 to 70%,< 1 nM,> 70%
"O=C1CCC(N2Cc3cc(N4CCC(CN5CC(C6(c7ccc(-c8cnc9[nH]cc(C(=O)c%10c(F)ccc(NS(=O)(=O)N%11CC[C@@H](F)C%11)c%10F)c9c8)cc7)CC6)C5)CC4)ccc3C2=O)C(=O)N1 (stereo partly drawn) [Compound 316, (3R)-N-{3-[5-(4-{1-[1-({1-[2-(2,6-dioxopiperidin-3-yl)-1-oxo-2,3-dihydro-1H-isoindol-5-yl]piperidin-4-yl}methyl)azetidin-3-yl]cyclopropyl}phenyl)-1H-pyrrolo[2,3-b]pyridine-3-carbonyl]-2,4-difluorophenyl}-3-fluoropyrrolidine-1-sulfonamide]",50 to 500 nM,< 35%,1 to 10 nM,> 70%
"O=C1CCC(N2Cc3cc(N4CCC(CC5CN(c6ccc(-c7cnc8[nH]cc(C(=O)c9c(F)ccc(NS(=O)(=O)N%10CC[C@@H](F)C%10)c9F)c8c7)cc6)C5)CC4)ccc3C2=O)C(=O)N1 (stereo partly drawn) [Compound 302, (3R)-N-[3-(5-{4-[3-({1-[2-(2,6-dioxopiperidin-3-yl)-1-oxo-2,3-dihydro-1H-isoindol-5-yl]piperidin-4-yl}methyl)azetidin-1-yl]phenyl}-1H-pyrrolo[2,3-b]pyridine-3-carbonyl)-2,4-difluorophenyl]-3-fluoropyrrolidine-1-sulfonamide]",50 to 500 nM,35 to 70%,1 to 10 nM,35 to 70%
"COc1cc(N2CCC(CN3CC4(C3)CN(c3ccc(-c5cnc6[nH]cc(C(=O)c7c(F)ccc(NS(=O)(=O)N8CC[C@@H](F)C8)c7F)c6c5)cc3)C4)CC2)ccc1C(=O)N[C@H]1CCC(=O)NC1=O [Compound 352, 4-(4-{[6-(4-{3-[2,6-difluoro-3-({[(3R)-3-fluoropyrrolidin-1-yl]sulfonyl}amino)benzoyl]-1H-pyrrolo[2,3-b]pyridin-5-yl}phenyl)-2,6-diazaspiro[3.3]heptan-2-yl]methyl}piperidin-1-yl)-N-[(3S)-2,6-dioxopiperidin-3-yl]-2-methoxybenzamide]",5 to 50 nM,35 to 70%,1 to 10 nM,> 70%
"O=C1CC[C@H](N2Cc3cc(/C=C/CN4CC5(C4)CN(c4ccc(-c6cnc7[nH]cc(C(=O)c8c(F)ccc(NS(=O)(=O)N9CC[C@@H](F)C9)c8F)c7c6)cc4)C5)ccc3C2=O)C(=O)N1 [Compound 38, (3R)-N-{3-[5-(4-{6-[(2E)-3-{2-[(3S)-2,6-dioxopiperidin-3-yl]-1-oxo-2,3-dihdyro-1H-isoindol-5-yl}prop-2-en-1-yl]-2,6-diazaspiro[3.3]heptan-2-yl}phenyl)-1H-pyrrolo[2,3-b]pyridine-3-carbonyl]-2,4-difluorophenyl}-3-fluoropyrrolidine-1-sulfonamide]",5 to 50 nM,35 to 70%,< 1 nM,35 to 70%
"O=C1CCC(N2Cc3cc(C4CCN(C[C@@H]5CCN(c6ccc(-c7cnc8[nH]cc(C(=O)c9c(F)ccc(NS(=O)(=O)N%10CC[C@@H](F)C%10)c9F)c8c7)cc6)C(=O)C5)CC4)ccc3C2=O)C(=O)N1 (stereo partly drawn) [Compound 312, (3R)-N-[3-(5-{4-[(4R)-4-({4-[2-(2,6-dioxopiperidin-3-yl)-1-oxo-2,3-dihydro-1H-isoindol-5-yl]piperidin-1-yl}methyl)-2-oxopiperidin-1-yl]phenyl}-1H-pyrrolo[2,3-b]pyridine-3-carbonyl)-2,4-difluorophenyl]-3-fluoropyrrolidine-1-sulfonamide]",50 to 500 nM,> 70%,1 to 10 nM,> 70%
"O=C1CC[C@H](N2Cc3cc(N4CCC(OC5CCN(c6ccc(-c7cnc8[nH]cc(C(=O)c9c(F)ccc(NS(=O)(=O)N%10CC[C@@H](F)C%10)c9F)c8c7)cc6)CC5)CC4)ccc3C2=O)C(=O)N1 [Compound 34, (3R)-N-{3-[5-(4-{4-[(1-{2-[(3S)-2,6-dioxopiperidin-3-yl]-1-oxo-2,3-dihydro-1H-isoindol-5-yl}piperidin-4-yl)oxy]piperidin-1-yl}phenyl)-1H-pyrrolo [2,3-b]pyridine-3-carbonyl]-2,4-difluorophenyl}-3-fluoropyrrolidine-1-sulfonamide]",50 to 500 nM,35 to 70%,1 to 10 nM,35 to 70%
"O=C1CCC(N2Cc3cc(N4CC5(CN(CC6CCN(c7ccc(-c8cnc9[nH]cc(C(=O)c%10c(F)ccc(NS(=O)(=O)N%11CCC(F)(F)C%11)c%10F)c9c8)cc7)CC6)C5)C4)ccc3C2=O)C(=O)N1 (stereo not shown) [Compound 246, N-[3-(5-{4-[4-({6-[2-(2,6-dioxopiperidin-3-yl)-1-oxo-2,3-dihydro-1H-isoindol-5-yl]-2,6-diazaspiro[3.3]heptan-2-yl}methyl)piperidin-1-yl]phenyl}-1H-pyrrolo [2,3-b]pyridine-3-carbonyl)-2,4-difluorophenyl]-3,3-difluoropyrrolidine-1-sulfonamide]",5 to 50 nM,35 to 70%,1 to 10 nM,> 70%

# From patent publication US12180193B2, “Accelerating fibrosarcoma protein degrading compounds and associated methods of use” (Arvinas Operations, Inc., priority 2020, dated 2024)
